Experiments:
human mGluR5d = biological target: T1, human mGluR5d (Homo sapiens, UniProt P41594); test: FLIPR assay, mGluR5 antagonism (intracellular calcium mobilization); format: cell-based; conditions: cells expressing human mGluR5d; fluo-3 calcium signal; read-out: FLIPR hmGluR5d
T1 construct: expressed in transfected cells; It is kept under hygromycin B and Zeocin selection; The separate IP3 assay names GHEK cells
Excerpt: Functional Assessment of mGluR5 Antagonism in Cell Lines Expressing mGluR5D
The properties of the compounds of the invention can be analyzed using standard assays for pharmacological activity. Examples of glutamate receptor assays are well known in the art as described in for example Aramori et al., Neuron 8:757 (1992), Tanabe et al., Neuron 8:169 (1992), Miller et al., J. Neuroscience 15: 6103 (1995), Balazs, et al., J. Neurochemistry 69:151 (1997). The methodology described in these publications is incorporated herein by reference. Conveniently, the compounds of the invention can be studied by means of an assay (FLIPR) that measures the mobilization of intracellular calcium, [Ca^2+], in cells expressing mGluR5 or another assay (IP3) that measures inositol phosphate turnover.
Cells expressing human mGluR5d as described in WO97/05252 cultured in a mixture of high glucose DMEM with Glutamax (31966-021) (500 mL), 10% dialyzed fetal bovine serum (Hyclone #SH30079.03) (56 mL), 200 μg/mL Hygromycin B (Invitrogen 45-0430, 50 mg/mL)(2.2 mL), 200 μg/mL Zeocin (Invitrogen #R250-01; 100 mg/mL)(1.1 mL) are seeded at a density of 100,000 cells per well on collagen coated clear bottom 96-well plates with black sides and cells were allowed to adhere over night before experiments. All assays are done in a buffer containing 146 mM NaCl, 5 mM KCl, 1 mM MgCl2, 1 mM CaCl2, 20 mM HEPES, 1 mg/mL glucose and 1 mg/mL BSA Fraction IV (pH 7.4). Cell cultures in the 96-well plates are loaded for 60 minutes in the above mentioned buffer containing 6 μM of the acetoxymethyl ester form of the fluorescent calcium indicator fluo-3 (Molecular Probes, Eugene, Oreg.) in 0.025% pluronic acid (a proprietary, non-ionic surfactant polyol -CAS Number 9003-11-6). Following the loading period the fluo-3buffer is removed and replaced with fresh assay buffer. FLIPR experiments are done using a laser setting of 0.700 W and a 0.4 second CCD camera shutter speed with excitation and emission wavelengths of 488 nm and 562 nm, respectively. Each experiment is initiated with 160 μl of buffer present in each well of the cell plate. A 40 μl addition from the antagonist plate was followed by a 50 μL addition from the agonist plate. A 30 minutes, in dark at 25° C., interval separates the antagonist and agonist additions. The fluorescence signal is sampled 50 times at 1-second intervals followed by 3 samples at 5-second intervals immediately after each of the two additions. Responses are measured as the difference between the peak heights of the response to agonist, less the background fluorescence within the sample period. IC50 determinations are made using a linear least squares fitting program.

[1] = Determination of brain to plasma ratio in rat; format: in vivo; conditions: brain and plasma, female Sprague Dawley rats, read-out: Brain/Plasma Ratio of compound in Rat
Experimental: Determination of Brain to Plasma Ratio in Rat
Brain to plasma ratios are estimated in female Sprague Dawley rats. The compound is dissolved in water or another appropriate vehicle. For determination of brain to plasma ratio the compound is administrated as a subcutaneous, or an intravenous bolus injection, or an intravenous infusion, or an oral administration. At a predetermined time point after the administration a blood sample is taken with cardiac puncture. The rat is terminated by cutting the heart open, and the brain is immediately retained. The blood samples are collected in heparinized tubes and centrifuged within 30 minutes, in order to separate the plasma from the blood cells. The plasma is transferred to 96-well plates and stored at −20° C. until analysis. The brains are divided in half, and each half is placed in a pre-tarred tube and stored at −20° C. until analysis. Prior to the analysis, the brain samples are thawed and 3 mL/g brain tissue of distilled water is added to the tubes. The brain samples are sonicated in an ice bath until the samples are homogenized. Both brain and plasma samples are precipitated with acetonitrile. After centrifugation, the supernatant is diluted with 0.2% formic acid. Analysis is performed on a short reversed-phase HPLC column with rapid gradient elution and MSMS detection using a triple quadrupole instrument with electrospray ionisation and Selected Reaction Monitoring (SRM) acquisition. Liquid-liquid extraction may be used as an alternative sample clean-up. The samples are extracted, by shaking, to an organic solvent after addition of a suitable buffer. An aliquot of the organic layer is transferred to a new vial and evaporated to dryness under a stream of nitrogen. After reconstitution of the residuals the samples are ready for injection onto the HPLC column.

T1 sequence (P41594 21-942 isoform P41594-3 limits assumed): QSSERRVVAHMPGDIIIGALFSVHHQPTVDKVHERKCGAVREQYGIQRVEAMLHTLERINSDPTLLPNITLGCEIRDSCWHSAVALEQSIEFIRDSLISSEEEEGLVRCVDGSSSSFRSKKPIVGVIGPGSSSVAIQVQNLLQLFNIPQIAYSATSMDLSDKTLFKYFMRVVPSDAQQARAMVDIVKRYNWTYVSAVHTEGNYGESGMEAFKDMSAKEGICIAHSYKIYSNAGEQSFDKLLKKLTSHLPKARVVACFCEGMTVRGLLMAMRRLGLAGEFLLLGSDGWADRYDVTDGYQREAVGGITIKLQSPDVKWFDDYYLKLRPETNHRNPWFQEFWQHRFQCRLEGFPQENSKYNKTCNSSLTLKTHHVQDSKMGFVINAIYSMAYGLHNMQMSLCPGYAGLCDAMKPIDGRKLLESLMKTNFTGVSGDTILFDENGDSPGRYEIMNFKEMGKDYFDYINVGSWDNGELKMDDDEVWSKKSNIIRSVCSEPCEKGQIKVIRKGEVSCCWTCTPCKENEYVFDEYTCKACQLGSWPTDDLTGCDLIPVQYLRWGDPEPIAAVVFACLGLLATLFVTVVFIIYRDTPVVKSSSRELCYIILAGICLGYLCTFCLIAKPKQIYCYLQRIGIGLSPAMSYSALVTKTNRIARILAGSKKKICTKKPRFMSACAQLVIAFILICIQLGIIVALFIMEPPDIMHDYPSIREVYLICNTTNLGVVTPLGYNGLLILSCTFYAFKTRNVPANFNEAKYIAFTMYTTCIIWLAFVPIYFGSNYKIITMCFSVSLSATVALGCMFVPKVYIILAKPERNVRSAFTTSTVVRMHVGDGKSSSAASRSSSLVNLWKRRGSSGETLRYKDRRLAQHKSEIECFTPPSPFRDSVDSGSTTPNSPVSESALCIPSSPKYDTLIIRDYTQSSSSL

Structure (SMILES)	IC50 (human mGluR5d) [µM]	Kp [1]
Cc1cccc(-c2cc([C@H]3C[C@H]4C[C@H]4N3c3nnc(-c4ccn(C)c(=O)c4)n3C)no2)c1 [Example 13.1, 1-Methyl-4-(4-methyl-5-{(1R,3R,5R)-3-[5-(3-methylphenyl)isoxazol-3-yl]-2-azabicyclo[3.1.0]hex-2-yl}-4H-1,2,4-triazol-3-yl)pyridin-2(1H)-one]	0.073	0.01
Cc1cccc(-c2cc([C@H]3C[C@H]4C[C@H]4N3c3nnc(-c4cc[nH]c(=O)n4)n3C)no2)c1 [Example 13.2, 4-(4-Methyl-5-{(1R,3R,5R)-3-[5-(3-methylphenyl)isoxazol-3-yl]-2-azabicyclo[3.1.0]hex-2-yl}-4H-1,2,4-triazol-3-yl)pyrimidin-2(1H)-one]	0.131	–
Cc1cccc(-c2cc([C@H]3C[C@H]4C[C@H]4N3c3nnc(-c4cn[nH]c(=O)c4)n3C)no2)c1 [Example 13.3, 5-(4-Methyl-5-{(1R,3R,5R)-3-[5-(3-methylphenyl)isoxazol-3-yl]-2-azabicyclo[3.1.0]hex-2-yl}-4H-1,2,4-triazol-3-yl)pyrimidin-3(2H)-one]	0.071	–
Cn1c(-c2ccn(C)c(=O)c2)nnc1N1[C@@H](c2cc(-c3cccc(Cl)c3)on2)C[C@H]2C[C@H]21 [Example 13.4, 4-(5-{(1R,3R,5R)-3-[5-(3-Chlorophenyl)isoxazol-3-yl]-2-azabicyclo[3.1.0]hex-2-yl}-4-methyl-4H-1,2,4-triazol-3-yl)-1-methylpyridin-2(1H)-one]	0.039	< 0.01
Cn1c(-c2ccc(C(N)=O)cc2)nnc1N1[C@@H](c2cc(-c3cccc(Cl)c3)on2)C[C@H]2C[C@H]21 [Example 13.5, 4-(5-{(1R,3R,5R)-3-[5-(3-Chlorophenyl)isoxazol-3-yl]-2-azabicyclo[3.1.0]hex-2-yl}-4-methyl-4H-1,2,4-triazol-3-yl)benzamide]	0.014	–
Cn1c(-c2cn[nH]c(=O)c2)nnc1N1[C@@H](c2cc(-c3cccc(Cl)c3)on2)C[C@H]2C[C@H]21 [Example 13.6, 5-(5-{(1R,3R,5R)-3-[5-(3-Chlorophenyl)isoxazol-3-yl]-2-azabicyclo[3.1.0]hex-2-yl}-4-methyl-4H-1,2,4-triazol-3-yl)pyridazin-3(2H)-one]	0.032	< 0.01
Cn1c(-c2ccn(C)c(=O)c2)nnc1N1C[C@H]2C[C@H]2[C@@H]1c1cc(-c2cccc(Cl)c2)on1 [Example 13.8, 4-(5-{(1R,2R,5S)-2-[5-(3-Chlorophenyl)isoxazol-3-yl]-3-azabicyclo[3.1.0]hex-3-yl}-4-methyl-4H-1,2,4-triazol-3-yl)-1-methylpyridin-2(1H)-one]	0.051	–
Cn1c(-c2cn[nH]c(=O)c2)nnc1N1C[C@H]2C[C@H]2[C@@H]1c1cc(-c2cccc(Cl)c2)on1 [Example 13.9, 5-(5-{(1R,2R,5S)-2-[5-(3-Chlorophenyl)isoxazol-3-yl]-3-azabicyclo[3.1.0]hex-3-yl}-4-methyl-4H-1,2,4-triazol-3-yl)pyridazin-3(2H)-one]	0.046	–

From patent publication US20090111820A1, “FUSED PYRROLIDINE 1,2,4-TRIAZOLE DERIVATIVES AS MODULATORS OF MGLUR5” (priority 2007, published 2009)
